Like-named read-outs stand apart in the source and are kept apart here.
What was measured:
[1] = tested on: mouse model of ovalbumin (OVA)-induced asthma; assay: Experimental asthma model: eosinophil infiltrate in bronchioalveolar lavage fluid (BALF); format: in vivo
Method: (§1) A mouse model of ovalbumin (OVA)-induced asthma was used to screen GSNOR inhibitors for efficacy against methacholine (MCh)-induced bronchoconstriction/airway hyper-reactivity. This is a widely used and well characterized model that presents with an acute, allergic asthma phenotype with similarities to human asthma. Efficacy of GSNOR inhibitors were assessed using a prophylactic protocol in which GSNOR inhibitors were administered prior to challenge with MCh. Bronchoconstriction in response to challenge with increasing doses of MCh was assessed using whole body plethysmography (Penh; Buxco). The amount of eosinophil infiltrate into the bronchioalveolar lavage fluid (BALF) was also determined as a measure of lung inflammation. The effect of GSNOR inhibitors were compared to vehicles and to Combivent (inhaled; IH) as the positive control.
(§2) OVA (500 μg/ml) in PBS was mixed with equal volumes of 10% (w/v) aluminum potassium sulfate in distilled water and incubated for 60 min. at room temperature after adjustment to pH 6.5 using 10 N NaOH. After centrifugation at 750×g for 5 min, the OVA/alum pellet was resuspended to the original volume in distilled water. Mice received an intraperitoneal (IP) injection of 100 μg OVA (0.2 mL of 500 μg/mL in normal saline) complexed with alum on day 0. Mice were anesthetized by IP injection of a 0.2-mL mixture of ketamine and xylazine (0.44 and 6.3 mg/mL, respectively) in normal saline and were placed on a board in the supine position. Two hundred fifty micrograms (100 μl of a 2.5 mg/ml) of OVA (on day 8) and 125 μg (50 μl of 2.5 mg/ml) OVA (on days 15, 18, and 21) were placed on the back of the tongue of each animal.
After measurement of airway hyper-reactivity, the mice were exsanguination by cardiac puncture, and then BALF was collected from either both lungs or from the right lung after tying off the left lung at the mainstem bronchus. Total BALF cells were counted from a 0.05 mL aliquot, and the remaining fluid is centrifuged at 200×g for 10 min at 4° C. Cell pellets were resuspended in saline containing 10% BSA with smears made on glass slides. Eosinophils were stained for 5 min. with 0.05% aqueous eosin and 5% acetone in distilled water, rinsed with distilled water, and counterstained with 0.07% methylene blue.
(§3) GSNOR inhibitors were reconstituted in phosphate buffered saline (PBS), pH 7.4, at concentrations ranging from 0.00005 to 3 mg/mL. GSNOR inhibitors were administered to mice (10 mL/kg) as a single dose either intravenously (IV) or orally via gavage. Dosing was performed from 30 min. to 24 h prior to MCh challenge. Effect of GSNOR inhibitors were compared to PBS vehicle dosed in the same manner.
Area under the curve values for Penh across baseline, saline, and increasing doses of MCh challenge were calculated using GraphPad Prism 5.0 (San Diego, Calif.) and expressed as a percent of the respective (IV or orally administered) vehicle control. Statistical differences among treatment groups and the respective vehicle control group within each study were calculated using one-way ANOVA, Dunnetts (JMP 8.0, SAS Institute, Cary, N.C.).

[2] = tested on: mouse model of ovalbumin (OVA)-induced asthma; assay: Experimental asthma model: methacholine (MCh)-induced bronchoconstriction/airway hyper-reactivity (Penh) in ovalbumin (OVA)-induced asthma; format: in vivo; conditions: single IV dose 0.1 mg/kg, 48 h prior to MCh, read-out: area under the curve (AUC) for Penh response as percent of vehicle control
[3] = tested on: OVA sensitized mice, methacholine-induced bronchial hyper-reactivity; assay: GSNOR inhibition assay in an in vivo animal model: OVA mouse model of asthma, methacholine challenge, Penh by whole body plethysmograph; conditions: 1 mg/kg, 10 mg/kg or 30 mg/kg intravenously 24 hours prior
Method: In an effort to determine if similar observations would manifest if GSNOR were inhibited pharmacologically by a GSNOR inhibitor, an OVA mouse model (i.e., the wild-type model of Que et al.) was used. In this study, OVA sensitized mice were administered 1 mg/kg, 10 mg/kg or 30 mg/kg of Compound 1 intravenously at 24 hours prior to being placed in a whole body plethysmograph (Buxco Research Systems, Wilmington, N.C.) and provided with fresh air.
Subject animals were then challenged with an aerosol of increasing dosages of the bronchoconstrictive agent methacholine, a pharmacologic agent commonly used in determining the degree of bronchial hyper-reactivity in experimental subjects. In this study mice were exposed to an increasing concentration of methacholine, each dose being presented for 3 minutes, during which time readings were taken. Doses of methacholine were 0 mg/ml, 5 mg/ml, 20 mg/ml, and 50 mg/ml. The degree of bronchial hyper-reactivity was measured as the ‘Enhanced Pause’ (Penh), a unit-less index of airway hyper-reactivity (Dohi et al., Lab Invest. 79(12):1559-1571, 1999).

[4] = tested on: mouse model of ovalbumin (OVA)-induced asthma; assay: Experimental asthma model: methacholine (MCh)-induced bronchoconstriction/airway hyper-reactivity (Penh) in ovalbumin (OVA)-induced asthma; format: in vivo; conditions: for response vs control in vivo at 0.1 mg/kg: single IV dose 0.1 mg/kg; for efficacy against experimental asthma (attenuation of MCh induced bronchoconstriction): administered intravenously (IV); for response vs control in vivo at 1 mg/kg: single IV dose 1 mg/kg; for response vs control in vivo at 30 mg/kg: single oral dose 30 mg/kg; for efficacy against experimental asthma (attenuation of MCh induced bronchoconstriction and pulmonary inflammation): administered intravenously (IV) or orally; for response vs control in vivo at 10 mg/kg: single IV dose 10 mg/kg
Method: as §1, §2
In vivo airway responsiveness to methacholine was measured 24 h after the last OVA challenge in conscious, freely moving, spontaneously breathing mice with whole body plethysmography using a Buxco chamber (Wilmington, N.C.). Mice were challenged with aerosolized saline or increasing doses of methacholine (5, 20 and 50 mg/mL) generated by an ultrasonic nebulizer for 2 min. The degree of bronchoconstriction was expressed as enhanced pause (Penh), a calculated dimensionless value, which correlates with the measurement of airway resistance, impedance, and intrapleural pressure in the same mouse. Penh readings were taken and averaged for 4 min. after each nebulization challenge. Penh was calculated as follows: Penh=[(Te/Tr−1)×(PEF/PIF)], where Te is expiration time, Tr is relaxation time, PEF is peak expiratory flow, and PIF is peak inspiratory flow×0.67 coefficient. The time for the box pressure to change from a maximum to a user-defined percentage of the maximum represents the relaxation time. The Tr measurement begins at the maximum box pressure and ends at 40%.
as §3
Combivent was used as the positive control in all studies. Combivent (Boehringer Ingelheim) was administered to the lung using the inhaler device supplied with the product, but adapted for administration to mice, using a pipet tip. Combivent was administered 48 h, 24 h, and 1 h prior to MCh challenge. Each puff (or dose) of Combivent provided a dose of 18 μg ipatropium bromide (IpBr) and 103 μg albuterol sulfate or approximately 0.9 mg/kg IpBr and 5 mg/kg albuterol.
Area under the curve values for Penh across baseline, saline, and increasing doses of MCh challenge were calculated using GraphPad Prism 5.0 (San Diego, Calif.) and expressed as a percent of the respective (IV or orally administered) vehicle control.

[5] = single IV dose 1 mg/kg, 24 h prior to MCh
[6] = Mus musculus, 24 h prior to MCh, read-out: area under the curve (AUC) for Penh response as percent of vehicle control
[7] = single oral dose 30 mg/kg, 24 h prior to MCh

Compound | efficacy against experimental asthma (attenuation of MCh induced bronchoconstriction) [4] | reduction of eosinophil infiltration into the BALF [1, 5] [%] | response vs control in vivo at 1 mg/kg [4, 6] [%] | reduction of eosinophil infiltration into the BALF [1, 7] [%] | response vs control in vivo at 30 mg/kg [4, 6] [%] | efficacy against experimental asthma (attenuation of MCh induced bronchoconstriction and pulmonary inflammation) [4] | further results
Cc1cc(C(N)=O)ccc1-n1c(CCC(=O)O)ccc1-c1ccc(-n2ccnc2)cc1 [Compound 1, 3-(5-(4-(1H-imidazol-1-yl)phenyl)-1-(4-carbamoyl-2-methyl-phenyl)-1H-pyrrol-2-yl)propanoic acid] | efficacious | – | – | – | – | – | reduction of eosinophil infiltration into the BALF ([1]; single IV dose 0.01 mg/kg, 24 h prior to MCh): 98%; response vs control in vivo at 0.1 mg/kg [2]: 64.4 ± 55%; broncho-constrictive responses (Penh) to methacholine challenge compared with vehicle-only dosed animals [3]: lower broncho-constrictive responses; ED50 ([4]; Mus musculus, iv, read-out: ED50, dose demonstrating 50% reduction in Penh response): 0.011 ± 0.003 mg/kg; response vs control in vivo at 0.01 mg/kg ([4]; Mus musculus, single IV dose 0.01 mg/kg, 24 h prior to MCh, read-out: area under the curve (AUC) for Penh response as percent of vehicle control): 42.1 ± 2.8%; response vs control in vivo at 0.1 mg/kg ([4]; Mus musculus, 1 h prior to MCh, read-out: area under the curve (AUC) for Penh response as percent of vehicle control): 76.4 ± 6.6%
Cc1cc(C(N)=O)ccc1-n1c(CCC(=O)O)ccc1-c1ccc(-n2ccnc2C)cc1 [Compound 3, 3-(1-(4-carbamoyl-2-methyl-phenyl)-5-(4-(2-methyl-1H-imidazol-1-yl)phenyl)-1H-pyrrol-2-yl)propanoic acid] | efficacious | 46 | 71 ± 8.6 | – | – | – | –
COc1ccc(-c2ccc(CCC(=O)O)n2-c2ccc(C(N)=O)cc2C)cc1 [Compound 9, 3-(1-(4-carbamoyl-2-methylphenyl)-5-(4-methoxy-phenyl)-1H-pyrrol-2-yl)propanoic acid] | – | 92 | 65.3 ± 5.9 | 100 | 24.6 ± 3 | efficacious | –
Cc1cc(C(N)=O)ccc1-n1c(CCC(=O)O)ccc1-c1ccc(Br)cc1 [Compound 12, 3-(5-(4-bromophenyl)-1-(4-carbamoyl-2-methylphenyl)-1H-pyrrol-2-yl)propanoic acid] | efficacious | – | – | – | – | – | –
COc1cc(Cl)ccc1-c1ccc(CCC(=O)O)n1-c1ccc(C(N)=O)cc1C [Compound 116, 3-(1-(4-carbamoyl-2-methylphenyl)-5-(4-chloro-2-methoxy-phenyl)-1H-pyrrol-2-yl)propanoic acid] | – | 100 | 60.2 ± 7.9 | 100 | 26.7 ± 1.4 | efficacious | reduction of eosinophil infiltration into the BALF ([1]; single IV dose 0.1 mg/kg, 24 h prior to MCh): 79%; reduction of eosinophil infiltration into the BALF ([1]; single IV dose 10 mg/kg, 30 min. prior to MCh): 94%; reduction of eosinophil infiltration into the BALF ([1]; single IV dose 10 mg/kg, 24 h prior to MCh): 100%; response vs control in vivo at 10 mg/kg ([4]; Mus musculus, 0.5 h, 30 min. prior to MCh, read-out: area under the curve (AUC) for Penh response as percent of vehicle control): 35.2 ± 9.3%; response vs control in vivo at 0.1 mg/kg [4, 6]: 64.2 ± 7.6%; response vs control in vivo at 10 mg/kg [4, 6]: 40.7 ± 2.4%
Cc1cc(NS(C)(=O)=O)ccc1-n1c(CCC(=O)O)ccc1-c1ccc(-n2ccnc2C)s1 [Compound 171, 3-(5-(5-(2-methyl-1H-imidazol-1-yl)thiophen-2-yl)-1-(2-methyl-4-(methyl-sulfonamido)-phenyl)-1H-pyrrol-2-yl)propanoic acid] | efficacious | 63 | 78.7 ± 8.1 | – | – | – | –

Reference: US8691816B2, “Pyrrole inhibitors of S-nitrosoglutathione reductase as therapeutic agents” (N30 Pharmaceuticals, Inc., priority 2008, dated 2014)
